Experimental data from US20250333708A1, “MANIPULATING NEPHRON DIFFERENTIATION RATE IN INDUCED HUMAN PLURIPOTENT STEM CELL ORGANOIDS AND TISSUES BY ENGINEERING MECHANICS OF THE MICROENVIRONMENT” (THE TRUSTEES OF THE UNIVERSITY OF PENNSYLVANIA, priority 2022, published 2025).

Columns and labels:
[1] = system: day 9 metanephric mesenchyme spheroids (human iPSC-derived nephron progenitors); assay: Nephron progenitor spheroid differentiation assay (SIX2 / LHX1 immunofluorescence); type: cell-based; conditions: 48 hr; for LHX1+ early nephron cells in spheroids (marker positive pixel area as % of projection area): single agent in FGF9 basal media, 3 μM CHIR or 10 μM Y27632; for LHX1+ early nephron cells in spheroids, agent combined with CHIR: 3 μM CHIR plus 10 μM Y27632 or 30 μM blebbistatin
Procedure: We then decided to mimic the reduction in anisotropic stress that occurs over the tip life-cycle in vivo by adding the ROCK inhibitor Y-27632 or the non-muscle myosin II inhibitor blebbistatin to day 9 metanephric mesenchyme spheroids for 48 hr. These temporal parameters were optimized to capture early transitions of cells through the SIX2+ state and to accumulate differentiation events sparsely, enabling quantification. Spheroids were analyzed by immunofluorescence for SIX2 and the pre-tubular aggregate/renal vesicle (early nephron) marker LHX1 (FIG. 6E). […] These LHX1+ cells clustered and began to express the later medial nephron marker Jag1, indicating appropriate progression of differentiation after perturbation (FIG. 6D).
Nephron progenitor spheroid differentiation assays. Day 9 cap mesenchyme-stage nephron progenitors were lifted with Accutase and re-plated at 50,000 cells per well in 96-well ultra low attachment round-bottom plates (Corning 7007) in Advanced RPMI 1640 Medium, Glutamax, 1× Penn/Strep and 10 ng ml^−1 FGF9 (“basal media”) plus the specified perturbation conditions, which included 3 μM CHIR, 10 μM Y27632 (StemCell Technologies, 72304) from a 10 mM stock in DMSO, and/or 30 μM(S) (S)-(−)-blebbistatin (Tocris, 1852) from a 30 mM stock in DMSO. Cells were then aggregated by plate centrifugation at 300 g for 30 s. After 48 hr in culture, spheroids were collected and transferred to 1.7 mL tubes using a p200 pipette tip widened by cutting the tip to size with a razor blade. Excess media was removed and spheroids were fixed in ice-cold 4% paraformaldehyde in PBS for 15 min. Spheroids were then stained for immunofluorescence microscopy similar to kidneys (see Kidney immunofluorescence imaging.) via primary and secondary antibody incubation for 48 hr each at 4 C and washes in PBSTX totaling 6 hours. Primary antibodies and dilutions included mouse anti-Lhx1 (1:50, 4F2, Developmental Studies Hybridoma Bank, University of Iowa, RRID: AB_531784) and rabbit anti-Six2 (1:600, 11562-1-AP, Proteintech, RRID: AB_2189084). Spheroids were then incubated in 1 μg ml^−1 DAPI in PBS at 4 C for 1 hr before washing once in ice-cold PBS. Spheroids were transferred for imaging using a widened p200 pipette tip to a cover-slip bottom 24-well plate (Greiner 662892). Excess PBS was removed and spheroids were incubated with ˜20 μl of FocusClear (Cedarlane Labs, FC-101) for 20 min at room temperature prior to confocal imaging. Spheroids were imaged using 5 μm z-steps.
Quantification of spheroid cell differentiation. Maximum intensity projections of spheroids were generated and further processed in FIJI. DAPI signal was used to segment spheroids and calculate their areas in number of pixels. SIX2 and LHX1 signal was segmented using 50 pix rolling ball background subtraction and thresholding to remove background signal. The total numbers of SIX2+ and LHX1+ pixels were then divided by the total number of DAPI+ pixels to normalize positive pixels by spheroid area.

[2] = system: day 9 iPSC-derived metanephric mesenchyme; assay: CHIR effect on day 9 iPSC-derived metanephric mesenchyme (substrate release and compaction); type: cell-based, human; conditions: day 9 cells, CHIR pulse; ascribed to collective cell contractility rather than motility
Source text: We next turned to a bottom-up approach using human iPSC-derived nephron progenitor organoids to assess the effects of mechanical microenvironment changes on nephron differentiation (FIG. 6B). When differentiated, these roughly mimic the progression in transcriptional states and marker expression profiles of mouse nephron progenitors in vivo, despite some species-specific differences (61-65). To test perturbations to cell collective tension during nephron progenitor commitment, we first differentiated PSCs through late primitive streak and posterior intermediate mesoderm (PIM) lineages to metanephric mesenchyme according to established protocols (66), confirming by qPCR (FIG. 10). We also validated that induced metanephric mesenchyme cells go on to form later nephron structures including ECAD+tubules containing GATA3+ distal nephron cells and Na^+/[…]/2Cl^− cotransporter SLC12A1+ loop of Henle cells after 21 days in culture (FIG. 6C). Day 9 induced metanephric mesenchyme cells were dissociated and plated into low-attachment round-bottom plates where they formed spheroids that we assayed for early nephrogenesis (FIG. 6D). In similar assays, a CHIR pulse is typically applied after re-aggregation of cells to mimic Wnt9b-driven β-catenin signaling during nephron progenitor commitment in vivo (61,62,67,68). […]

[3] = system: Rho-associated protein kinase (ROCK); conditions: cited from earlier work

SMILES	LHX1+ early nephron cells in spheroids (marker positive pixel area as % of projection area) [1]	LHX1+ early nephron cells in spheroids, agent combined with CHIR [1]	other results
Cc1c[nH]c(-c2cnc(NCCNc3ccc(C#N)cn3)nc2-c2ccc(Cl)cc2Cl)n1 [CHIR]	increased differentiation to the LHX1+ state	–	Cell release from substrate and compaction [2]: induced cell release from their substrate and compaction
Cc1cncc2cccc(S(=O)(=O)N3CCCNC[C@@H]3C)c12 [H1152]	–	–	Nephron formation, high dose ([3]; high dose H1152): decreases in nephron formation; Nephron formation, low dose ([3]; low dose H1152): increases in nephron formation
C[C@@H](N)[C@H]1CC[C@H](C(=O)Nc2ccncc2)CC1 [Y-27632]	did not by itself induce LHX1+ cells	synergistic effect	SIX2+ nephron progenitors in spheroids (marker positive pixel area as % of projection area) ([1]; 10 μM Y27632 in FGF9 basal media, without CHIR): increased cell conversion to and/or self-renewal of SIX2+ progenitors
Cc1ccc2c(c1)C(=O)[C@]1(O)CCN(c3ccccc3)C1=N2 [blebbistatin, (S)-(−)-blebbistatin]	–	synergistic effect	–
